From patent US20060263895A1, “Method for monitoring the stereoselectivity and relative rate of organic chemical reactions” (priority 2005, published 2006)

Experiments:
[1] = Catalyst performance in the ISES cuvette (biphasic HKR), ee of isolated diol by chiral HPLC; conditions: diol isolated from merged ISES cuvettes
Procedure: For several catalysts, control experiments were run to assess whether running the HKR under biphasic conditions influences the enantioselectivity of these Co(III)-salen HKR catalysts. In such cases, parallel duplicate ‘double-cuvette’ runs were chosen (i.e. two HLADH cuvettes and two TBADH cuvettes for a single catalyst). Following the ISES runs, the contents of all four reporting cuvettes were merged. Unreacted epoxide was rapidly removed under Ar stream. Following dilution with CH2Cl2 (˜50 mL), sodium sulfate was added to adsorb remaining water. The resulting organic solution was filtered and the filter cake washed with CH2Cl2 (2×20 mL). Following evaporation of the solvent, the crude diols were derivatized directly with p-bromobenzoyl imidazole to yield the 1,2-propanediol bis(pbromobenzoate) esters, which were then purified by silica gel chromatography to estimate diol yields. Enantiomeric excesses were determined using chiral HPLC, as before. […] Indeed, the ee's seen from diol isolated directly out of the cuvette generally appear slightly higher than those obtained under ‘Jacobsen conditions,’ probably reflecting the shorter reaction times employed in the ISES experiment.

[2] = Double cuvette-ISES (in situ enzymatic screening) of Co(III)-salen mediated HKR of (±)-propylene oxide
Procedure, shortened: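 Co(III)-salen catalysts (0.25 mol %) in CHCl3 with (±)-propylene oxide (7.2 M in organic layer), overlaid with aqueous reporting layers in 50 mM sodium pyrophosphate, final pH 8.6. Reporters: 0.35 U HLADH/7.2 mM NAD+ ((S)-diol) or 0.35 U TBADH/2.2 mM NADP+ ((R)-diol). A340 increase gives enantioselectivity and relative rate estimates.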

[3] = HKR of (±)-propylene oxide under standard neat 'Jacobsen conditions' (NMR conversion, chiral HPLC ee); conditions: for NMR conv. (time): 3 h; for NMR conv. (time) / % ee (HPLC): loading 0.25 mol %; for % ee (HPLC) / % ee of the 1,2-propanediol product, as observed by chiral HPLC (lower number): + = (S), − = (R); for % ee of the 1,2-propanediol product, as observed by chiral HPLC (lower number): neat propylene oxide, 0.55 equiv. H2O, 0.25 mol % catalyst, 3 h reaction time
Procedure, shortened: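 Co(III)-salen catalyst (0.25 mol %) with neat (±)-propylene oxide and water (0.55 equiv.), added at 0° C., then stirred at room temperature, usually 3 h (longer if <5% conversion). Conversion by 1H NMR; diol isolated, derivatized to bis(p-bromobenzoate), ee by chiral HPLC.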

[4] = [total 1,2-propanediol] in aqueous ISES layer by 1H NMR
Procedure: The concentration of 1,2-propanediol in the aqueous layer was estimated under typical ISES conditions using 1H NMR spectroscopy. The bilayer was prepared as usual for double cuvette-ISES (Section V), but for the substitution of D2O for H2O in the buffer, and the elimination of the dehydrogenase enzymes. After 15 min, the aqueous layer (300 μL of 500 μL total) was withdrawn and mixed with a fresh solution of imidazole of known concentration (also 300 μL in D2O), as an internal concentration standard. Accumulation of the 1H NMR spectrum, followed by integration and quantitation, provided an experimental measure of [total diol] in the aqueous reporting layer at t=15 minutes for the catalyst under investigation. The observed diol concentrations for ten catalysts examined in this way are collected in Table S6, below. These have been normalized to the value for the catalyst derived from salen 3b (arbitrarily assigned a rate of 1.0).

HLADH = biological target: T1, HLADH (Equus caballus, UniProt P00327); test: HLADH oxidation of 1,2-hexenediol; format: biochemical, horse
T1 construct: purchased; host or cells: equine liver
T1 sequence (P00327 whole entry): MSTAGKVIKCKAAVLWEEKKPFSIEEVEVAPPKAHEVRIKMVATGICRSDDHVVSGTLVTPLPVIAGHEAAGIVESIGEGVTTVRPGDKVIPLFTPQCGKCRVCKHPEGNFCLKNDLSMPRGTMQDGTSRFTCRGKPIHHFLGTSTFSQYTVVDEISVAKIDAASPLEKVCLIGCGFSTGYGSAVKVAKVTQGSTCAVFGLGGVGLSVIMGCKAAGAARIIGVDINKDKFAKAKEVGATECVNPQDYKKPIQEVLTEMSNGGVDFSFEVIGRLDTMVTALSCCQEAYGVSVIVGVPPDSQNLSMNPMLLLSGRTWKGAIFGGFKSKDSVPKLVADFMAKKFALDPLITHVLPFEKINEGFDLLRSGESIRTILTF
Description: (§1) The following examples illustrate the invention with respect to an in situ enzymatic screening (ISES) method to predict the enantioselectivity of chiral catalysts for the hydrolytic kinetic resolution (HKR) of (±) hexene oxide. Above, it was shown that the method of the invention may be employed to predict the enantioselectivity and relative rate of a catalyst library for HKR of (±)-propylene oxide using horse liver alcohol dehydrogenase (HLADH) and Thermoalaerobium brockii alcohol dehydrogenase (TBADH).

[5] = biological target: T2, Lactobacillus kefir alcohol dehydrogenase (LKADH) (Lentilactobacillus kefiri, UniProt Q6WVP7); test: LKADH oxidation of 1,2-hexenediol; format: biochemical
T2 sequence (Q6WVP7 1-252): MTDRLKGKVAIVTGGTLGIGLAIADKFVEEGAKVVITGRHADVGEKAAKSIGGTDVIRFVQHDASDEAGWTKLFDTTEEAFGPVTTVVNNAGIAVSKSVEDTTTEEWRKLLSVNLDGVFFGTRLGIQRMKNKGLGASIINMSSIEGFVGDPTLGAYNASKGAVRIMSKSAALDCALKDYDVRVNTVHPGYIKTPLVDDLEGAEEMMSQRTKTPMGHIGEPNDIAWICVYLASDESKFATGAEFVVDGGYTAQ
Description: as §1

[6] = biological target: T3, alcohol dehydrogenase from Thermoanaerobium brockii (TBADH) (Thermoanaerobacter brockii, UniProt P14941); conditions: read-out: reported Km value for NADP+ with TBADH; cited from earlier work
T3 construct: purchased
T3 sequence (P14941 1-352): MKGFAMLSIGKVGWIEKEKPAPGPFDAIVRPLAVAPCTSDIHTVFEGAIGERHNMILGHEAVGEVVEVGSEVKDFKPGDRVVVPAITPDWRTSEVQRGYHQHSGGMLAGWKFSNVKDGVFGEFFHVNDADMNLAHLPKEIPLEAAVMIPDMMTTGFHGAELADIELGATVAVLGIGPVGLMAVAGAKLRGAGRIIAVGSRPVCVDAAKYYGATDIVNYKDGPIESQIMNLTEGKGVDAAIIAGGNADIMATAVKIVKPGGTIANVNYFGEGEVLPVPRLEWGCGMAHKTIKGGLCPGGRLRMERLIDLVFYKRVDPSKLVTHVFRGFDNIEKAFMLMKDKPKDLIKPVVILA

[7] = HKR of (±)-hexene oxide under neat conditions; conditions: in 30 min, 2.0 mol % catalyst, 25° C.
Procedure: Co(III)-salen (acetate) catalysts were evaluated for HKR of (±)-hexene oxide, under neat conditions, similar to those described by Jacobsen and co-workers (Schaus, S. E.; Brandes, B. D.; Larrow, J. F.; Tokunaga, M.; Hansen, K. B.; Gould, A. E.; Furrow, M. E.; Jacobsen, E. N. J. Am. Chem. Soc. 2002, 124, 1307-1315). Reactions were stopped after 0.5 h, to obtain the enantiopurity of the 1,2-hexenediol produced at relatively early reaction times, for comparison with biphasic ISES predictions.
A typical procedure follows: To the Co(III)-salen catalyst derived from 1e (16.6 mg, 23.2 μmol, 2.0 mol %) at rt was added (±)-hexene oxide (116 mg, 1.16 mmols). The mixture was cooled to 0° C. Then water (11.4 μL, 0.64 mmols, 0.55 equiv.) was added and the flask was capped tightly and stirred 25° C. for 30 min. The progress of the reaction was estimated by ^1H NMR, the reaction mixture was cooled to 0° C., an aliquot was then withdrawn and dissolved in CDCl3 at 0° C. bath. After distilling over the unreacted epoxide, the diol product was collected, and then itself distilled again by Kugelrohr. When the reaction conversion was more than 50% in 30 min, 15 min reaction time was used (for catalyst 1e) to get the product diol.
To determine ee, the isolated diol was derivatized using p-bromobenzoyl imidazole (2.2 equiv.) in THF in the presence of NaH (4 equiv.) at rt for 5 min. […]

[8] = bilayer of pH 8.6 buffer over 7.2 M epoxide in CHCl3, 0.25 mol % catalyst, 15-35 min, + = (S), − = (R)
[9] = reaction stopped at the time given (mostly 3 h)

| Molecule | % ee measured biphasic conds. [1] [% ee] | % ee predicted double cuvet-ISES ([2]; bilayer) [% ee] | % ee measured neat 'Jacobsen conditions' [3] [% ee] | % ee of the 1,2-propanediol product, as predicted by double-cuvette ISES (upper number) [2, 8] | NMR conv. (time) [3] | % ee (HPLC) [3, 9] | % ee of the 1,2-propanediol product, as observed by chiral HPLC (lower number) [3] | also measured |
| --- | --- | --- | --- | --- | --- | --- | --- | --- |
| CO[C@H]1[C@@H]2OC(C)(C)O[C@@H]2COC1(CN=Cc1cc(C(C)(C)C)cc(C(C)(C)C)c1O)N=Cc1cc(C(C)(C)C)cc(C(C)(C)C)c1O (stereo partly drawn) [Salen 7a, N,N′-Bis(3′,5′-di-tert-butylsalicylidene)-3-O-methyl-4,5-O-isopropylidene-1,2-dideoxy-Dfructopyranosyl-1,2-diamine] | −55 | −33 | −59 | – | – | – | – | % ee of the 1,2-propanediol product, as predicted by double-cuvette ISES (upper number) ([2]; bilayer of pH 8.6 buffer over 7.2 M epoxide in CHCl3, 0.25 mol % catalyst, 15-35 min, + = (S), − = (R), listed as 7a*): −33 % ee; NMR conv. (time) ([3]; listed as 7a*): 7 (3 h) %; % ee (HPLC) ([3]; reaction stopped at the time printed in the row (mostly 3 h), listed as 7a*): −59 (R) % ee; % ee of the 1,2-propanediol product, as observed by chiral HPLC (lower number) ([3]; listed as 7a*): −59 % ee |
| N,N′-Bis(3′,5′-di-tert-butylsalicylidene[1R-(1α,2α,5α)]-2-amino-7,7-dimethyl-2-bicyclo[3.3.1]heptane-ethanamine [Salen 1a] | 87 | 56 | 72 | +56 % ee | 12 (3 h) % | +72 (S) % ee | +72 % ee | [diol] (mM) @ 15 min ([4]; aqueous ISES layer, 1H NMR, t = 15 min): 19 mM; Norm. ([4]; normalized to the catalyst derived from salen 3b (rate 1.0)): 0.20 |
| CC(C)(C)c1cc(C=NC[C@H](Cc2cccc3ccccc23)N=Cc2cc(C(C)(C)C)cc(C(C)(C)C)c2O)c(O)c(C(C)(C)C)c1 [Salen 4a, N,N′-Bis(3′,5′-di-tert-butylsalicylidene)-(1S)-(α-naphthylmethyl)-1,2-ethylenediamine] | 82 | 77 | 76 | +77 % ee | 35 (3 h) % | +76 (S) % ee | +76 % ee | – |
| CCCCC(O)CO (stereo not drawn) | – | – | – | – | – | – | – | selectivity of HLADH for the oxidation of 1,2-hexenediol (HLADH): modest (S)-selectivity; selectivity of LKADH for the oxidation of 1,2-hexenediol [5]: high (S)-selectivity |
| NC(=O)c1ccc[n+]([C@@H]2O[C@H](COP(=O)([O-])OP(=O)(O)OC[C@H]3O[C@@H](n4cnc5c(N)ncnc54)[C@H](OP(=O)(O)O)[C@@H]3O)[C@@H](O)[C@H]2O)c1 [NADP+] | – | – | – | – | – | – | – | Km [6]: 13 µM |
| N,N′-Bis(3′,5′-diiodosalicylidene)-[1R-(1α,2α,5α)]-2-amino-7,7-dimethyl-2-bicyclo[3.3.1]heptaneethanamine [Salen 1e] | – | – | – | – | – | +28 (S) % ee | +28 % ee | % ee of the 1,2-propanediol product, as predicted by double-cuvette ISES (upper number) ([2]; catalyst tested at 0.05 mol %, bilayer): +47 % ee; reaction conversion [7]: more than 50% |
